Experimental data taken from patent US20010053774A1, “Non-steroidal ligands for the estrogen receptor” (GLAXO WELLCOME INC.., priority 1994, published 2001).
Read-outs that look alike come from different tables or passages of the source.

What was measured:
rat estrogen receptor = rat estrogen receptor (Rattus norvegicus, UniProt P06211); settings: for receptor affinity in the receptor binding assay (in words): comparison within the amide analog series
From the text: Those skilled in the art will appreciate that several acceptable varieties of rat estrogen receptor binding assays are known and available for initial screening of the compounds of the present invention with respect to their ability to bind to the appropriate receptor. Compounds were initially evaluated as set forth below in an rat estrogen receptor binding assay for the ability to inhibit the binding of [^3H]-estradiol.

[1] = test system: Ishikawa human endometrioma cell line; experiment: Ishikawa cell functional assay of estrogenic activity (alkaline phosphatase induction); assay type: cell-based; settings: for EC50: Ishikawa-Var I cells, 2 days incubation, estrogen agonist activity, read-out: EC50 (concentration inducing 50% of maximal alkaline phosphatase activity); for agonist activity (Emax) in the Ishikawa cell functional assay (in words): comparison with tamoxifen or within the series; for Emax (maximal alkaline phosphatase activity) / Emax: percentage of the alkaline phosphatase activity induced by a saturating concentration of estradiol; for Emax: Ishikawa, read-out: Emax (maximal alkaline phosphatase activity)
Experimental: Subconfluent Ishikawa-Var I cells were removed from maintenance growth conditions and resuspended in phenol red-free DMEM-F12 containing 5% charcoal stripped FBS and 2 mM glutamine at a concentration of 58,500 cells/mL. Cells were plated at a density of 13,000 cells/cm^2 and placed in an incubator (37° C., 5% CO2) for 3 days. Cells were harvested and resuspended in phenol red-free DMEM-F12 containing 1% charcoal stripped FBS, 2 mM glutamine, 100 Units/mL penicillin and 100 μg/mL streptomycin to a concentration of 83,000 cells/mL. Cells were seeded at a density of 8300 cells/well in 96 well plates and allowed to attach overnight. Appropriate drug treatments at 2× concentrations were added in 0.1 mL of medium containing 0.2% DMSO. Plates were incubated for 2 days, media was aspirated and plates washed once with 300 μL 0.9% sterile saline. Plates were frozen at −70° C. and then warmed to RT. The attached cells were assayed for alkaline phosphatase activity by addition of 200 μL of 5 mM p-nitrophenylphosphate in 1 M diethanolamine, pH 10.4, containing 0.1% (w/v) Triton X-100, incubation at 37° C. for 30 min and measurement of absorbance at 405 nm on a Molecular Devices ThermoMax plate reader.

[2] = test system: 21 day old female SD rats; experiment: in-vivo anti-uterotrophic activity in immature rats (uterine weight/body weight); set-up: species or system rat; settings: 10 μmol/kg by gavage for 3 days, compared with tamoxifen
Experimental: In order to evaluate the compounds set forth above for in-vivo anti-uterotrophic activity, groups of five 21 day old female SD rats (30-35 g) were weighed and the average weights recorded for each treatment group as illustrated in FIG. 1. Stock solutions (10×) of the triphenylethylene analogs in ethanol were diluted with 0.5% methyl cellulose and 10 μmol/kg was dosed by gavage to the animals. Estradiol was dissolved in sesame oil and 100 nmol/kg dosed by subcutaneous injection. Animals were dosed for 3 days and sacrificed on day 4 by CO2 asphyxiation. The body weights were obtained, uteri removed, blotted and weighed. Data is expressed as uterine weight/body weight±standard error. Solid bars represent data from animals dosed with test compound alone. Open bars represent data from animals dosed with test compounds 6h prior to a dose of estradiol.

[3] = test system: 90 day old estrogen deficient ovariectomized rats; experiment: bone mineral density in ovariectomized rats (lumbar spine and tibia); assay type: in vivo, rat; settings: 10 μmol/kg orally once a day for 28 days, versus sham-operated
Experimental: As an example of the functional profile of these compounds in bone, Compound No. 9 was evaluated in 90 day old estrogen deficient ovariectomized rats for their ability to inhibit loss of bone mineral density. Ninety day old SD rats were divided into groups of six. […] were surgically ovariectomized. Two days post-ovariectomy, animals were dosed by gavage with either 10 μmol/kg of Compound No. 9 in 0.5% methyl cellulose or vehicle once a day for 28 days. One group of aminals was sham-operated, and 2 days post-ovariectomy dosed with vehicle once a day for 28 days. At 0, 14 and 28 days, rats were anesthesized with isoflurane and placed in the supine position with their spines parallel to the long axis of the densitometer table. The lumbar spine was scanned using the pelvic bones as a landmark. […] The right tibia was analysed with subregional high resolution software, focusing on the 3-5 mm distal from the growth plate previously identified as a region of accelerated bone loss due to ovariectomy.
BMD was measured by dual-energy X-ray absorptiometry using a Hologic QDR-2000 bone densitometer using a regional high-resolution software package with default scan length, width, line spacing and point resolution of 2, 0.75, 0.01 and 0.005 in. respectively.

Chain of rat estrogen receptor (P06211 whole entry): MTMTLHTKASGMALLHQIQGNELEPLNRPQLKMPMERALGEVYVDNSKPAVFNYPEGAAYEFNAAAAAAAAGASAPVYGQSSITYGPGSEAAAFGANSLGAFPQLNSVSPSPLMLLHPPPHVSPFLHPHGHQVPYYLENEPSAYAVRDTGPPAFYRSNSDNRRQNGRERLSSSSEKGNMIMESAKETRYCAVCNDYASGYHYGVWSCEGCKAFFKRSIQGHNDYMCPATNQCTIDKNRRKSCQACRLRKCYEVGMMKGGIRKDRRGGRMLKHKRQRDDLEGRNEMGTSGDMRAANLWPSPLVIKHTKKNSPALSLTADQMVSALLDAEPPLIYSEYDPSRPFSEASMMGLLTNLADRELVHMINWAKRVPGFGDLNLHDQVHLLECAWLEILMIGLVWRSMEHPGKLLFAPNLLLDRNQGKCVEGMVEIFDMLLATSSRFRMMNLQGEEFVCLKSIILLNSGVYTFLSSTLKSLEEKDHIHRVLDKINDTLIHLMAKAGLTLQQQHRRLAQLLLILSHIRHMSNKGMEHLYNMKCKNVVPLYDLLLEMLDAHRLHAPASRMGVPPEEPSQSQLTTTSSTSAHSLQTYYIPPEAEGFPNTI

## CCC(=C(c1ccccc1)c1ccc(C=CC(=O)N(CC)CC)cc1)c1ccccc1 [Compound No. 1, 3-[4-(1,2-Diphenyl-but-1-enyl)-phenyl]-N,N-diethyl acrylamide]
Rat estrogen receptor
  receptor affinity in the receptor binding assay (in words): highest affinity
Rat estrogen receptor; higher affinity than tamoxifen
  estrogen receptor binding affinity relative to tamoxifen: approx. 10 fold
[1]
  EC50: 2.3 nM
  agonist activity (Emax) in the Ishikawa cell functional assay (in words): significantly lower agonist activity (Emax) than tamoxifen
  Emax (maximal alkaline phosphatase activity): 11.9 ± 1.2%

## CCC(=C(c1ccccc1)c1ccc(C=C(C)C(=O)N(CC)CC)cc1)c1ccccc1 [Compound No. 4, 3-[4-(1,2-Diphenyl-but-1-enyl)-phenyl]-N, N-diethyl-2-methyl-acrylamide]
[1]; Homo sapiens, 48 h
  EC50: 20 nM
[1]; Homo sapiens
  Emax: 18.8 ± 2.3%

## CCC(=C(c1ccccc1)c1ccc(C(C)=CC(=O)N(CC)CC)cc1)c1ccccc1 [Compound No. 5, 3-[4-(1,2-Diphenyl-but-1-enyl)-phenyl]-but-2-enoic acid diethylamide]
[1]; Homo sapiens, 48 h
  EC50: 7.3 nM
[1]; Homo sapiens
  Emax: 15 ± 3%
other
  melting point: 109 to 111 °C

## CCC(=C(c1ccccc1)c1ccc(C=CC(=O)OC)cc1)c1ccccc1 [Compound No. 6, 3-[4-(1,2-Diphenyl-but-1-enyl)-phenyl]-acrylic acid methyl ester]
other
  melting point: 133 to 135 °C

## CCC(=C(c1ccccc1)c1ccc(C=CC#N)cc1)c1ccccc1 [Compound No. 7, 3-[4-(1,2-Diphenyl-but-1-enyl)-phenyl]-acrylonitrile]
other
  melting point: 101 to 102 °C

## CCC(=C(c1ccccc1)c1ccc(C=CC(=O)OC(C)(C)C)cc1)c1ccccc1 [Compound No. 8, 3-[4-(1,2-Diphenyl-but-1-enyl)-phenyl]-acrylic acid tert-butyl ester]
other
  melting point: 139 to 140 °C

## CCC(=C(c1ccccc1)c1ccc(C=CC(=O)O)cc1)c1ccccc1 [Compound No. 9, 3-[4-(1,2-Diphenyl-but-1-enyl)-phenyl]-acrylic acid]
[1]; Homo sapiens, 48 h
  EC50: 58 nM
[1]; Homo sapiens
  Emax: 3.8 ± 0.9%
[1]
  agonist activity (Emax) in the Ishikawa cell functional assay (in words): lowest residual agonist activity
[2]
  residual agonist activity, uterine weight/body weight (FIG. 1): less residual agonist activity than tamoxifen
[3]
  bone mineral density (BMD), lumbar spine and tibia (FIG. 2): full agonist activity

## CCC(=C(c1ccccc1)c1ccc(C=CC(=O)N(C2CCCCC2)C2CCCCC2)cc1)c1ccccc1 [Compound No. 12, N,N-Dicyclohexyl-3-[4-(1,2-diphenyl-but-1-enyl)-phenyl] acrylamide]
Rat estrogen receptor
  receptor affinity in the receptor binding assay (in words): reduced receptor affinity
[1]
  EC50: 70 nM
  Emax (maximal alkaline phosphatase activity): 19.4 ± 2.0%

## CCC(=C(c1ccccc1)c1ccc(C=Cc2noc(C)n2)cc1)c1ccccc1 [Compound No. 18, 3-{2-[4-(1,2-Diphenyl-but-1-enyl)-phenyl]-vinyl}-5-methyl-[1,2,4]-oxadiazole]
other
  melting point: 158 to 159 °C

## CCC(=C(c1ccccc1)c1ccc(C=CCO)cc1)c1ccccc1 [Compound No. 19, 3-[4-(1,2-Diphenyl-but-1-enyl)-phenyl]-prop-2-ene-1-ol]
other
  melting point: 80 to 83 °C

## C[C@]12CC[C@@H]3c4ccc(O)cc4CC[C@H]3[C@@H]1CC[C@@H]2O [Estradiol, estradiol, reference compound]
[1]; Homo sapiens, 48 h
  EC50: 0.01 nM
[1]; Homo sapiens
  Emax: 100%

## CC/C(=C(\c1ccccc1)c1ccc(OCCN(C)C)cc1)c1ccccc1 [Tamoxifen, (Z)-1,2-diphenyl-1-[4-[2-(dimethylamino)ethoxy]phenyl]-1-butene, reference compound]
[1]; Homo sapiens, 48 h
  EC50: 33 nM
[1]; Homo sapiens
  Emax: 16.5 ± 0.6%

## CCC(=C(c1ccccc1)c1ccc(C2CC2C(=O)N(CC)CC)cc1)c1ccccc1 (stereo not drawn) [compound 3, 2-[4-(1,2-Diphenyl-but-1-enyl)-phenyl]cyclopropanecarboxylic acid diethylamide]
[1]; Homo sapiens, 48 h
  EC50: 4.9 nM
[1]; Homo sapiens
  Emax: 15.7 ± 1.8%
other
  melting point: 42 to 44 °C

## CCC(=C(c1ccccc1)c1ccc(C=CC(=O)N2CCOCC2)cc1)c1ccccc1 [compound 10, 3-[4-(1,2-Diphenyl-but-1-enyl)-phenyl]-1-morpholin-4-yl-prop-2-en-1-one]
[1]; Homo sapiens, 48 h
  EC50: 6.9 nM
[1]; Homo sapiens
  Emax: 14.8 ± 2.4%
other
  melting point: 150 to 154 °C

## CCC(=C(c1ccccc1)c1ccc(C=CC(=O)NCCCOC)cc1)c1ccccc1 [compound 11, 3-[4-(1,2-Diphenyl-but-1-enyl)-phenyl]-N-(3-methoxy-propyl)-acrylamide]
[1]; Homo sapiens, 48 h
  EC50: 11 nM
[1]; Homo sapiens
  Emax: 14 ± 1.5%
other
  melting point: 132 to 135 °C

## CCC(=C(c1ccccc1)c1ccc(C=CC(=O)N(CC)CCN(C)C)cc1)c1ccccc1 [compound 13, N-(2-Dimethylamino-ethyl)-3-[4-(1,2-diphenyl-but-1-enyl)-phenyl]-N-ethyl acrylamide]
[1]
  EC50: 4.6 nM
  Emax (maximal alkaline phosphatase activity): 16.5 ± 1.7%

## CCCCCCCCN(C)C(=O)C=Cc1ccc(C(=C(CC)c2ccccc2)c2ccccc2)cc1 [compound 14, 3-[4-(1,2-Diphenyl-but-1-enyl)-phenyl]-N-methyl-N-octyl acrylamide]
[1]
  EC50: 12 nM
  agonist activity (Emax) in the Ishikawa cell functional assay (in words): lowest residual agonist activity
  Emax (maximal alkaline phosphatase activity): 6.3 ± 1.2%

## CCC(=C(c1ccccc1)c1ccc(C=CC(N)=O)cc1)c1ccccc1 [compound 15, 3-[4-(1,2-Diphenyl-but-1-enyl)-phenyl]acrylamide]
[1]; Homo sapiens, 48 h
  EC50: 8.6 nM
[1]; Homo sapiens
  Emax: 8.9 ± 1.4%
[1]
  agonist activity (Emax) in the Ishikawa cell functional assay (in words): lowest residual agonist activity
[2]
  residual agonist activity, uterine weight/body weight (FIG. 1): less residual agonist activity than tamoxifen
other
  melting point: 200 to 202 °C

## CCNC(=O)C=Cc1ccc(C(=C(CC)c2ccccc2)c2ccccc2)cc1 [compound 16, 3-[4-(1,2-Diphenyl-but-1-enyl)-phenyl]-N-ethyl acrylamide]
[1]
  EC50: 18 nM
  Emax (maximal alkaline phosphatase activity): 11.8 ± 1.9%

## CCC(=C(c1ccccc1)c1ccc(C=CC(N)=NO)cc1)c1ccccc1 [compound 17, 1-Amino-3-[4-(1,2-diphenyl-but-1-enyl)-phenyl]-prop-2-ene-1-one oxime]
other
  melting point: 182 to 185 °C

## CCC(=C(c1ccccc1)c1ccc(C=CC(=S)N(CC)CC)cc1)c1ccccc1 [compound 21, 3-[4-(1,2-Diphenyl-but-1-enyl)-phenyl]-N,N-diethyl thioacrylamide]
[1]
  EC50: 6.9 nM
  Emax (maximal alkaline phosphatase activity): 18.8 ± 2.6%

## CCC(=C(c1ccccc1)c1ccc(C=CC(=O)NCCCO)cc1)c1ccccc1 [compound 22, 3-[4-(1,2-Diphenyl-but-1-enyl)-phenyl]-N-(3-hydroxy-propyl)-acrylamide]
[1]; Homo sapiens, 48 h
  EC50: 17 nM
[1]; Homo sapiens
  Emax: 15.3 ± 2.4%
other
  melting point: 144 to 146 °C
